Test results taken from patent publication US10617680B2 (CELGENE QUANTICEL RESEARCH, INC., priority 2017, dated 2020).
pIC50: −log10 of the molar value.

Molecular target: CBP (Homo sapiens (Human), UniProt Q92793)
Test: In vitro CBP inhibition (AlphaScreen, biotinylated H4-tetraacetyl peptide)
Assay type: binding
Settings: AlphaScreen, Table 29; read-out: CBP IC50
How it was run: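 His-tagged CBP expressed in E. coli (50 nM final) incubated with biotinylated H4K5/8/12/16(Ac) peptide (20 nM final) in 50 mM HEPES pH 7.3, 10 mM NaCl, 0.25 mM TCEP, 0.1% BSA, 0.005% Brij-35, 0.4% DMSO, 20 min at room temp.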

Chain of CBP (Q92793 1081-1197): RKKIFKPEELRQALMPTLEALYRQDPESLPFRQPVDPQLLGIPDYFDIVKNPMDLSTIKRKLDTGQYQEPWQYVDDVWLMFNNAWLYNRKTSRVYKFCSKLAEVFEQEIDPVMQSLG

COc1ncc(-c2cc(=O)n(C)cc2-c2cnn(-c3ccccc3F)c2)cn1 [Example 320, 5-(1-(2-fluorophenyl)-1H-pyrazol-4-yl)-4-(2-methoxypyrimidin-5-yl)-1-methylpyridin-2(1H)-one]
pIC50: > 6.30

CC(c1ccccc1)n1cc(-c2cn(C)c(=O)cc2F)cn1 (stereo not drawn) [Example 21, 4-fluoro-1-methyl-5-(1-(1-phenylethyl)-1H-pyrazol-4-yl) pyridin-2(1H)-one]
pIC50: 5.30 to 6.30

CC(C)COc1ccc(-c2cc(=O)n(C)cc2-c2cnn(-c3ccccc3C#N)c2)cn1 [Example 236, 2-[4-(6-Isobutoxy-1′-methyl-6′-oxo-1′,6′-dihydro-[3,4′]bipyridinyl-3′-yl)-pyrazol-1-yl]-benzonitrile]
pIC50: > 6.30

Cn1cc(-c2cnn(CCN3CCOCC3)c2)c(-c2ccccc2)cc1=O [Example 130, 1-methyl-5-(1-(2-morpho-linoethyl)-1H-pyrazol-4-yl)-4-phenylpyridin-2(1H)-one]
pIC50: > 6.30

CN(C)c1ccc(-c2cc(=O)n(C)cc2-c2cnn(-c3cccc(Cl)c3C#N)c2)cn1 [Example 345, 2-chloro-6-{4-[6-(dimethylamino)-1′-methyl-6′-oxo-1′,6′-dihydro-[3,4′-bipyridine]-3′-yl]-1H-pyrazol-1-yl}benzonitrile]
pIC50: > 6.30

Cc1cc(-c2cnn(-c3ccccc3C(=O)O)c2)cn(C)c1=O [Example 255, 2-[4-(1,5-Dimethyl-6-oxo-1,6-dihydro-pyridin-3-yl)-pyrazol-1-yl]-benzoic acid]
pIC50: > 6.30

CCOc1cc(=O)n(C)cc1-c1cnn(-c2cccc(C(C)C)c2C#N)c1 [Example 176, 2-[4-(4-Ethoxy-1-methyl-6-oxo-1,6-dihydro-pyridin-3-yl)-pyrazol-1-yl]-6-isopropyl-benzonitrile]
pIC50: > 6.30

Cn1cc(-c2cnn(Cc3ccccc3)c2)c(OCC(F)(F)F)cc1=O [Example 91, 5-(1-benzyl-1H-pyrazol-4-yl)-1-methyl-4-(2,2,2-trifluoro-ethoxy)pyridin-2(1H)-one]
pIC50: > 6.30

COc1ccc(-c2cc(=O)n(C)cc2-c2cnn(C(C)c3ccccc3)c2)cn1 (stereo not drawn) [Example 308, 6-methoxy-1′-methyl-5′-(1-(1-phenylethyl)-1H-pyrazol-4-yl)-[3,4′-bipyridin]-2′(1′H)-one]
pIC50: > 6.30

CCOc1cc(=O)n(C)cc1-c1cnn(-c2ccccc2C(=O)O)c1 [Example 249, 2-(4-(4-ethoxy-1-methyl-6-oxo-1,6-dihydropyridin-3-yl)-1H-pyrazol-1-yl)benzoic acid]
pIC50: > 6.30

CCOc1cc(=O)n(C)cc1-c1cnn(-c2ccccn2)c1 [Example 253, 4-ethoxy-1-methyl-5-(1-(pyridin-2-yl)-1H-pyrazol-4-yl)pyridin-2(1H)-one]
pIC50: > 6.30

Cn1cc(-c2cnn(-c3cccc(Cl)c3C#N)c2)c(-c2cnc(N3CCOCC3)nc2)cc1=O [Example 335, 2-chloro-6-(4-(1-methyl-4-(2-morpholinopyrimidin-5-yl)-6-oxo-1,6-dihydropyridin-3-yl)-1H-pyrazol-1-yl)benzonitrile]
pIC50: > 6.30

CNOc1cc(=O)n(C)cc1-c1cnn(Cc2ccccc2)c1 [Example 170, 5-(1-benzyl-1H-pyrazol-4-yl)-1-methyl-4-((methylamino)oxy)pyridin-2(1H)-one]
pIC50: > 6.30

Cc1cc(-c2cnn(C(C)c3ccccc3)c2C)cn(C)c1=O (stereo not drawn) [Example 34, 1,3-dimethyl-5-(5-methyl-1-(1-phenylethyl)-1H-pyrazol-4-yl) pyridin-2(1H)-one]
pIC50: > 6.30

CC(c1ccccc1)n1cc(-c2cn(C)c(=O)cc2OCc2ccccc2)cn1 (stereo not drawn) [Example 56, 4-(benzyloxy)-1-methyl-5-(1-(1-phenylethyl)-1H-pyrazol-4-yl) pyridin-2(1H)-one]
pIC50: > 6.30

CN(C)c1ncc(-c2cc(=O)n(C)cc2-c2cnn(-c3cccc(F)c3C#N)c2)cn1 [Example 334, 2-[4-[4-[2-(dimethylamino)pyrimidin-5-yl]-1-methyl-6-oxo-3-pyridyl]pyrazol-1-yl]-6-fluoro-benzonitrile]
pIC50: > 6.30

Cn1cc(-c2cnn(-c3cccc(Cl)c3C#N)c2)c(-c2ccc(C3CCCC3)nc2)cc1=O [Example 379, 2-chloro-6-(4-(6-cyclopentyl-1′-methyl-6′-oxo-1′,6′-dihydro-[3,4′-bipyridin]-3′-yl)-1H-pyrazol-1-yl)benzonitrile]
pIC50: > 6.30

COc1ccc(-c2cc(=O)n(C)cc2-c2cnn(-c3ccccc3F)c2)cn1 [Example 319]
pIC50: > 6.30

Cn1cc(-c2cnn(CC3CC3(F)F)c2)c(-c2ccccc2)cc1=O (stereo not drawn) [Example 190, 5-[1-(2,2-Difluoro-cyclopropylmethyl)-1H-pyrazol-4-yl]-1-methyl-4-phenyl-1H-pyridin-2-one]
pIC50: > 6.30

Cn1cc(-c2cnn(Cc3ccccc3)c2)c(-c2ccc(C#N)cc2)cc1=O [Example 150, 4-(5-(1-benzyl-1H-pyrazol-4-yl)-1-methyl-2-oxo-1,2-dihydro-pyridin-4-yl)benzonitrile]
pIC50: > 6.30

Cn1cc(-c2cnn(-c3ccccc3C(=O)O)c2)c(C2CC2)cc1=O [Example 211, 2-[4-(4-Cyclopropyl-1-methyl-6-oxo-1,6-dihydro-pyridin-3-yl)-pyrazol-1-yl]-benzoic acid]
pIC50: > 6.30

COc1ccc(C(=O)O)c(-n2cc(-c3cn(C)c(=O)cc3-c3ccc(F)cc3)cn2)c1 [Example 269, 2-{4-[4-(4-Fluoro-phenyl)-1-methyl-6-oxo-1,6-dihydro-pyridin-3-yl]-pyrazol-1-yl}-4-methoxy-benzoic acid]
pIC50: > 6.30

Cn1cc(-c2cn(C)c(=O)cc2C2CCCC2)cn1 [Example 142, 4-cyclopentyl-1-methyl-5-(1-methyl-1H-pyrazol-4-yl) pyridin-2(1H)-one]
pIC50: 5.30 to 6.30

Cn1ccc(-c2cc(=O)n(C)cc2-c2cnn(-c3ccccc3C#N)c2)cc1=O [Example 221, 2-[4-(1,1′-Dimethyl-6,2′-dioxo-1,6,1′,2′-tetrahydro-[4,4′]bipyridinyl-3-yl)-pyrazol-1-yl]-benzonitrile]
pIC50: > 6.30

CC(c1ccccc1)n1cc(-c2cn(C)c(=O)cc2Oc2ccccc2)cn1 (stereo not drawn) [Example 57, 1-methyl-4-phenoxy-5-(1-(1-phenylethyl)-1H-pyrazol-4-yl) pyridin-2(1H)-one]
pIC50: 5.30 to 6.30

CCOc1cc(=O)n(C)cc1-c1cnn(C(C)c2ccc(C)cc2)c1 (stereo not drawn) [Example 62, 4-ethoxy-1-methyl-5-(1-(1-(p-tolyl)ethyl)-1H-pyrazol-4-yl) pyridin-2(1H)-one]
pIC50: > 6.30

Cn1cc(-c2coc(-c3ccccc3)n2)c(-c2ccccc2)cc1=O [Example 396, 1-methyl-4-phenyl-5-(2-phenyloxazol-4-yl)pyridin-2(1H)-one]
pIC50: > 6.30

Cn1cc(-c2cnn(-c3cccc(C4CC4)c3C#N)c2)c(-c2ccc(OCC3CC3)nc2)cc1=O [Example 391, 2-cyclopropyl-6-(4-(6-(cyclopropylmethoxy)-1′-methyl-6′-oxo-1′,6′-dihydro-[3,4′-bipyridin]-3′-yl)-1H-pyrazol-1-yl)benzonitrile]
pIC50: > 6.30

Cn1ccc(-c2cc(=O)n(C)cc2-c2cnn(-c3ccccc3C(=O)NC#N)c2)cc1=O [Example 293, N-cyano-2-(4-(1,1′-dimethyl-2′,6-dioxo-1,1′,2′,6-tetrahydro-[4,4′-bipyridin]-3-yl)-1H-pyrazol-1-yl)benzamide]
pIC50: > 6.30

Cn1cc(-c2cnn(C3CCN(S(C)(=O)=O)CC3)c2)c(-c2ccccc2)cc1=O [Example 127, 1-methyl-5-(1-(1-(methyl-sulfonyl)-piperidin-4-yl)-1H-pyrazol-4-yl)-4-phenylpyridin-2(1H)-one]
pIC50: > 6.30

Cc1ccc(-c2cc(=O)n(C)cc2-c2cnn(-c3cccc(Cl)c3C#N)c2)cn1 [Example 369, 2-chloro-6-(4-(1′,6-dimethyl-6′-oxo-1′,6′-dihydro-[3,4′-bipyridin]-3′-yl)-1H-pyrazol-1-yl)benzonitrile]
pIC50: > 6.30

CCOc1cc(=O)n(C)cc1-c1cnn(C(C)c2ccc(-c3ccccc3)cc2)c1 (stereo not drawn) [Example 63, 5-(1-(1-([1,1′-biphenyl]-4-yl)ethyl)-1H-pyrazol-4-yl)-4-ethoxy-1-methylpyridin-2(1H)-one]
pIC50: > 6.30

COc1ccc(-c2cc(=O)n(C)cc2-c2cnn(-c3cc(C#N)ccc3OC)c2)cn1 [Example 306, 4-Methoxy-3-[4-(6-methoxy-1′-methyl-6′-oxo-1′,6′-dihydro-[3,4′]bipyridinyl-3′-yl)-pyrazol-1-yl]-benzonitrile]
pIC50: > 6.30

C[C@H](c1ccccc1)n1cc(-c2cn(C)c(=O)cc2-n2cccn2)cn1 [Example 61, (R)-1-methyl-5-(1-(1-phenylethyl)-1H-pyrazol-4-yl)-4-(1H-pyrazol-1-yl)pyridin-2(1H)-one]
pIC50: > 6.30

Cn1ccc(-c2cc(=O)n(C)cc2-c2cnn(-c3ccccc3F)c2)cc1=O [Example 318, 5-(1-(2-fluorophenyl)-1H-pyrazol-4-yl)-1,1′-dimethyl-[4,4′-bipyridine]-2,2′(1H,1′H)-dione]
pIC50: > 6.30

CN(C)S(=O)(=O)NC(=O)c1ccccc1-n1cc(-c2cn(C)c(=O)cc2C2CC2)cn1 [Example 304, N-[(dimethylamino)sulfonyl]-{2-[4-(4-cyclopropyl-1-methyl-6-oxo(3-hydropyridyl))pyrazolyl]phenyl}carboxamide]
pIC50: > 6.30

CCOc1ccc(-c2cc(=O)n(C)cc2-c2cnn(-c3cccc(C4CC4)c3C#N)c2)cn1 [Example 384, 2-cyclopropyl-6-(4-(6-ethoxy-1′-methyl-6′-oxo-1′,6′-dihydro-[3,4′-bipyridin]-3′-yl)-1H-pyrazol-1-yl)benzonitrile]
pIC50: > 6.30

CC(C)Oc1ccc(-c2cc(=O)n(C)cc2-c2cnn(-c3ccccc3C(=O)O)c2)cn1 [Example 231, 2-[4-(6-Isopropoxy-1′-methyl-6′-oxo-1′,6′-dihydro-[3,4′]bipyridinyl-3′-yl)-pyra.zol-1-yl]-benzoic acid]
pIC50: > 6.30

CC(c1ccccc1)n1cc(-c2cn(C)c(=O)cc2OC2CCCC2)cn1 (stereo not drawn) [Example 51, 4-(cyclopentyloxy)-1-methyl-5-(1-(1-phenylethyl)-1H-pyrazol-4-yl) pyridin-2(1H)-one]
pIC50: > 6.30
